Test results taken from ChEMBL document CHEMBL3632516, “Influence of polar side chains modifications on the dual enkephalinase inhibitory activity and conformation of human opiorphin, a pain perception related peptide” (Bioorg Med Chem Lett, 2015).
Residues, ends and D or L forms follow the SMILES beside them. *: point of attachment. X1 = CC(=O)N[C@@H]1[C@@H](O)[C@H](O)[C@@H](CO)O[C@@H]1*

What was measured:
Aminopeptidase N = Aminopeptidase N (Homo sapiens, UniProt P15144); test: Inhibition of human recombinant aminopeptidase N using […] as substrate after 20 to 40 mins by fluorometry
Neprilysin = Neprilysin (Homo sapiens, UniProt P08473); test: Inhibition of human recombinant neutral endopeptidase using […] as substrate after 20 to 40 mins by fluorometry
Sequence of Neprilysin (P08473 whole entry): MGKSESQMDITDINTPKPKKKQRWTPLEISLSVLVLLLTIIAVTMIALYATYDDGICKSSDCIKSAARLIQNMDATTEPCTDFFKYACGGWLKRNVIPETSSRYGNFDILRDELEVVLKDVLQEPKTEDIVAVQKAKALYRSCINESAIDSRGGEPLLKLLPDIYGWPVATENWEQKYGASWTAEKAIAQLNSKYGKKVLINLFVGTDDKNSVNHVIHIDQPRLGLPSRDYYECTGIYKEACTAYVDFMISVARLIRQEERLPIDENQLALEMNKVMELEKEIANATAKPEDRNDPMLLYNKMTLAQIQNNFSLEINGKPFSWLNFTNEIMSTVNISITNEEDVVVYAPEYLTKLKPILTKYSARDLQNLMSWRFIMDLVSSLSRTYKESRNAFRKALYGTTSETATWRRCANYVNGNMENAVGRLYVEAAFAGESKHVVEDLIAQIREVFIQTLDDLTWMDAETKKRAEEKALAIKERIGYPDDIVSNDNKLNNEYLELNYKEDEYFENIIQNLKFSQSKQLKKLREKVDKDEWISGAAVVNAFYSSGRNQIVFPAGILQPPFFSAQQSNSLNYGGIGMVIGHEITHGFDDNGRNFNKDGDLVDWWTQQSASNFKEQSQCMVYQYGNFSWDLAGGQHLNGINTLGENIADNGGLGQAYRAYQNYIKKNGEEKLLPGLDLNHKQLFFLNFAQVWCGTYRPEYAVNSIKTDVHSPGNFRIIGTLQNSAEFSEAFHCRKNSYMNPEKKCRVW

Sequence of Aminopeptidase N (P15144 whole entry): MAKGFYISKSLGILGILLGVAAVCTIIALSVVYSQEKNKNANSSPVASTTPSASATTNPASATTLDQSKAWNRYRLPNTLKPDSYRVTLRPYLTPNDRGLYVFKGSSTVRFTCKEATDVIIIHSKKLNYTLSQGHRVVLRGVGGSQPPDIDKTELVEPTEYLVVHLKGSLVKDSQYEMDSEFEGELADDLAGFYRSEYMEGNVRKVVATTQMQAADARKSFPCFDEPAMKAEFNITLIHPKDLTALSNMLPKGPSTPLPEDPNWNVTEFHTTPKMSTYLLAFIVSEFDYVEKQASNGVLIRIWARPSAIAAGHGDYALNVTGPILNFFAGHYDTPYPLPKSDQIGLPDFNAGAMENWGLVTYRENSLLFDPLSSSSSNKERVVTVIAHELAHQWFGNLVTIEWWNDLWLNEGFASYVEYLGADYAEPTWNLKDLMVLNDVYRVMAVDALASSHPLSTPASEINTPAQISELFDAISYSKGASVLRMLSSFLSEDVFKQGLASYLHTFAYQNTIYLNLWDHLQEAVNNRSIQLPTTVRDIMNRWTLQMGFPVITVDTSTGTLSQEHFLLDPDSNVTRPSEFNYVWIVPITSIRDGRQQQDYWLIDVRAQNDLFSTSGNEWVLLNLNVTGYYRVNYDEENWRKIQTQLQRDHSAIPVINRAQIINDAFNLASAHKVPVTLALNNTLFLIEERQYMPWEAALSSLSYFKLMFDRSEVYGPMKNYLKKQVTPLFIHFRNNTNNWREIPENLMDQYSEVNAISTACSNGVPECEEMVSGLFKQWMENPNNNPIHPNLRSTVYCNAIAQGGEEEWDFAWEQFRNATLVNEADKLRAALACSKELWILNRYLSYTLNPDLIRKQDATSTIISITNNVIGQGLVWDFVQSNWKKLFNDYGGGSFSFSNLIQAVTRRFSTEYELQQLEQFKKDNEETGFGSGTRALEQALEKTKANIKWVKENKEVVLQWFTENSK

Compound | IC50 (Aminopeptidase N) [µM] | IC50 (Neprilysin) [µM]
H-QKFSR-OH | > 70 | 50
H-QRFTR-OH | > 100 | > 100
H-QRFSK-OH | > 70 | 35
CC(=O)N[C@H]1[C@@H](O[C@H](C)[C@H](NC(=O)[C@H](Cc2ccccc2)NC(=O)[C@H](CCCNC(=N)N)NC(=O)[C@@H](N)CCC(N)=O)C(=O)N[C@@H](CCCNC(=N)N)C(=O)O)O[C@H](CO)[C@@H](O)[C@@H]1O (H-QRFT(X1)R-OH) | > 100 | > 100
H-QRFCR-OH |  | > 100
